The values below come from patent US20260085062A1, “NOVEL COMPOUNDS AS CK2 INHIBITORS” (Cambridge Enterprise Limited, priority 2022, published 2026).

One test concerns the target T1, CLK2 (Homo sapiens, UniProt P49760).
T1 construct: purchased Carna Biosciences 04-127
The test is described as follows: Biochemical assay for inhibitors of CLK2 kinase activity (ADP-Glo). The following applies: 20 nM CLK2, 50 μM peptide substrate, 100 μM ATP, read-out: Assay 2: CLK2 Enzyme IC50. (In ADP-Glo the light output rises with the ADP produced.)

A further test deals with T2, CK2α (Homo sapiens, UniProt P68400).
T2 construct: CK2α (residues 2-329) was produced in Escherichia coli BL21 (DE3) for kinase activity screening; His6 (N, cleaved yes); made in house; host or cells: Escherichia coli BL21 (DE3)
T2 sequence (P68400 2-329): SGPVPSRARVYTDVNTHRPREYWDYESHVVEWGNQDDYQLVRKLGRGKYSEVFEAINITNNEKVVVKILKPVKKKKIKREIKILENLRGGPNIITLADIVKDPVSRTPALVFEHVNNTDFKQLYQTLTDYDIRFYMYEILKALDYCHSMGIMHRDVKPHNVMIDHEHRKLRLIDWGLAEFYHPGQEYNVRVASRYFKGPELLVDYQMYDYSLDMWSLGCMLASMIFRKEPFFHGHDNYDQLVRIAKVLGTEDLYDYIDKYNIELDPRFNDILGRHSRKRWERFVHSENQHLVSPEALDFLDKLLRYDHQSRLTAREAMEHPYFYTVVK
The test is described as follows: Biochemical assay for inhibitors of CK2α kinase activity (ADP-Glo). The following applies: 0.2 nM CK2α, 50 μM peptide substrate, 15 μM ATP, read-out: Assay 1: CK2α Enzyme IC50.

A further test addresses T3, intracellular CK2α (Homo sapiens, UniProt P19784).
T3 construct: host or cells: HCT116 (ATCC CCL-247)
The test can be described thus: Cell-based NanoBRET assay for inhibitor binding to intracellular CK2α. The following applies: HCT116 cells transiently transfected with CSNK2A2-NanoLuc fusion vector; Tracer K-5; 2 h; read-out: Assay 3: NanoBRET ™ assay for binding to intracellular CK2α. The gist of the method: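 Living cells expressing NanoLuc-CK2α fusion were given a fixed tracer concentration, and compounds competitively displaced the reversibly bound tracer. Donor (450 nm) and acceptor (610 or 630 nm) emissions were read; BRET ratio = (acceptor/donor)×1,000, giving apparent intracellular affinity.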
Background: In BRET a luciferase serves as donor, and the signal depends on an acceptor being close.

T1 sequence (P49760 whole entry): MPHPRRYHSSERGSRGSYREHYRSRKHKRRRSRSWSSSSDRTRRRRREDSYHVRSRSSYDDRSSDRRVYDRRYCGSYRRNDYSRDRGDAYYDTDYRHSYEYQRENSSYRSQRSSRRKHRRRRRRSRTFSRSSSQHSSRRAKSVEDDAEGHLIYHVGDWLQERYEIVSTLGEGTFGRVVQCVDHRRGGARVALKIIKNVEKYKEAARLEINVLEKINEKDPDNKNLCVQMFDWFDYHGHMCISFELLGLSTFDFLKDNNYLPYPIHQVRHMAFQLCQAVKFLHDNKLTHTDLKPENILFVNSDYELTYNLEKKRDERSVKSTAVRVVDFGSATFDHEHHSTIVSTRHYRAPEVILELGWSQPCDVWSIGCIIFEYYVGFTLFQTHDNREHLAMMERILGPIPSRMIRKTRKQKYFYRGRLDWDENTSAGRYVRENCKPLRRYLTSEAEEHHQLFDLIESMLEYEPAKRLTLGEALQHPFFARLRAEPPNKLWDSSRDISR
T3 sequence (P19784 whole entry): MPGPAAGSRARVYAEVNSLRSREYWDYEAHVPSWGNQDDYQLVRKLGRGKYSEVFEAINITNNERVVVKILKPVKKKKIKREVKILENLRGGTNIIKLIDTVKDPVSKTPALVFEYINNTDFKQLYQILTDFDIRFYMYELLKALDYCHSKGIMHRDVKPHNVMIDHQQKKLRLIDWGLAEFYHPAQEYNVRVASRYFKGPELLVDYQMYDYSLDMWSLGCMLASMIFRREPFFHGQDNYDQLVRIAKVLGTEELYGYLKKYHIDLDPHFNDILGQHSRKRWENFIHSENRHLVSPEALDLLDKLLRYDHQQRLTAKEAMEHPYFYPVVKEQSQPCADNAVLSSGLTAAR

With `FC(F)(F)c1ccc2[nH]c(CNCCCCOCCNc3cc(-n4cnnc4)cc4[nH]nnc34)cc2c1` [Example 142, 6-(4H-1,2,4-triazol-4-yl)-N-(2-(4-(((5-(trifluoromethyl)-1H-indol-2-yl)methyl)amino)butoxy)ethyl)-1H-benzo[d][1,2,3]triazol-4-amine], the results for the IC50 on CLK2, on CK2α and on intracellular CK2α were 4.79 µM, 0.00543 µM and 3.86 µM, respectively.
On the same counts, the results for `O=C(O)CCc1cc(NCCOCCCCNCc2cc3cc(C(F)(F)F)ccc3[nH]2)c2cn[nH]c2c1` [Example 89, 3-(4-((2-(4-(((5-(trifluoromethyl)-1H-indol-2-yl)methyl)amino)butoxy)ethyl)amino)-1H-indazol-6-yl)propanoic acid] are 18.4 µM, more than 1 µM and more than 50 µM.
For the molecule `c1cc(-c2cc(OCCOCCCCNCc3cc4cc(OC5CCC5)ccc4[nH]3)c3cn[nH]c3c2)cnn1` [Example 55, N-((5-cyclobutoxy-1H-indol-2-yl)methyl)-4-(2-((6-(pyridazin-4-yl)-1H-indazol-4-yl)oxy)ethoxy)butan-1-amine], the values for the IC50 at CLK2, on CK2α and at intracellular CK2α were 4.74 µM, 0.00125 µM and 0.149 µM, respectively.
On the same counts, the results for `Fc1cc(CNCCCCOC2CN(c3cc(-c4cnoc4)cc4[nH]ncc34)C2)ccc1OC(F)(F)F` [Example 135, N-(3-fluoro-4-(trifluoromethoxy)benzyl)-4-((1-(6-(isoxazol-4-yl)-1H-indazol-4-yl)azetidin-3-yl)oxy)butan-1-amine] are 0.23 µM, 0.0133 µM and 1.83 µM.
`N#CCc1cc(CNCCCCOC2CN(c3cc(-c4ccnnc4)cc4[nH]nnc34)C2)cc(OC(F)(F)F)c1` [Example 151, 2-(3-(((4-((1-(6-(pyridazin-4-yl)-1H-benzo[d][1,2,3]triazol-4-yl)azetidin-3-yl)oxy)butyl)amino)methyl)-5-(trifluoromethoxy)phenyl)acetonitrile]: the IC50 at CLK2 was found to be 39.8 µM; at CK2α, 0.187 µM; on intracellular CK2α, 19.3 µM.
Regarding `OCCOc1cc(CNCCCCOCCNc2cccc3[nH]ncc23)cc(OC(F)(F)F)c1` [Example 202, 2-(3-(((4-(2-((1H-indazol-4-yl)amino)ethoxy)butyl)amino)methyl)-5-(trifluoromethoxy)phenoxy)ethan-1-ol], the figures for the IC50 on CLK2, on CK2α and on intracellular CK2α were 23.3 µM, 0.216 µM and more than 3 µM, respectively.
In the case of `OCCOc1cc(CNC2CC(COCCOc3cc(-c4cnnc(O)c4)cc4[nH]ncc34)C2)cc(OC(F)(F)F)c1` (stereo not drawn) [Example 199, 5-(4-(2-((3-((3-(2-hydroxyethoxy)-5-(trifluoromethoxy)benzyl)amino)cyclobutyl)methoxy)ethoxy)-1H-indazol-6-yl)pyridazin-3-ol], the IC50 on CLK2 stood at 1.21 µM; at CK2α, 0.0215 µM; on intracellular CK2α, 1.94 µM.
On the same counts, the results for `OCc1cc(CNC2CC(COCCNc3cc(-c4cnns4)cc4[nH]ncc34)C2)cc(OC(F)(F)F)c1` (stereo not drawn) [Example 203, (3-(((3-((2-((6-(1,2,3-thiadiazol-5-yl)-1H-indazol-4-yl)amino)ethoxy)methyl)cyclobutyl)amino)methyl)-5-(trifluoromethoxy)phenyl)methanol] are 0.307 µM, 0.0361 µM and 0.546 µM.
Regarding `FC(F)(F)Oc1ccc(CNCCCCOC2CN(c3cc(-n4cnnc4)cc4[nH]ncc34)C2)cc1Cl` [Example 132, 4-((1-(6-(4H-1,2,4-triazol-4-yl)-1H-indazol-4-yl)azetidin-3-yl)oxy)-N-(3-chloro-4-(trifluoromethoxy)benzyl)butan-1-amine], the figures for the IC50 on CLK2, at CK2α and on intracellular CK2α were 0.442 µM, 0.0109 µM and 0.869 µM, respectively.
For the molecule `COc1cc(-c2cc(NCCCNC(=O)CCNCc3ccc(-c4ccccc4)c(Cl)c3)c3cn[nH]c3c2)ccn1` [Example 22, 3-(((2-Chloro-[1,1′-biphenyl]-4-yl)methyl)amino)-N-(3-((6-(2-methoxypyridin-4-yl)-1H-indazol-4-yl)amino)propyl)propanamide], the IC50 on CLK2 turned out to be 1.12 µM; on CK2α, 0.00135 µM; on intracellular CK2α it was 0.363 µM.
For `Cn1c(CNCCCCOCCNc2cc(-n3cnnc3)cc3[nH]ncc23)cc2cc(C(F)(F)F)ccc21` [Example 51, N-(2-(4-(((1-methyl-5-(trifluoromethyl)-1H-indol-2-yl)methyl)amino)butoxy)ethyl)-6-(4H-1,2,4-triazol-4-yl)-1H-indazol-4-amine] the same measures were 0.225 µM, 0.00071 µM and 0.0721 µM.
On the same counts, the results for `Cn1c(CNCCCCOCCNc2cc(-n3cnnc3)cc3[nH]ncc23)nc2ccc(Cl)cc21` [Example 68, N-(2-(4-(((6-chloro-1-methyl-1H-benzo[d]imidazol-2-yl)methyl)amino)butoxy)ethyl)-6-(4H-1,2,4-triazol-4-yl)-1H-indazol-4-amine] are 0.566 µM, 0.136 µM and 18.7 µM.
For `Cn1c(CNCCC(=O)NCCCNc2cc(-n3cnnc3)cc3[nH]ncc23)cc2ccc(Cl)cc21` [Example 36, N-(3-((6-(4H-1,2,4-triazol-4-yl)-1H-indazol-4-yl)amino)propyl)-3-(((6-chloro-1-methyl-1H-indol-2-yl)methyl)amino)propanamide] the same measures were 0.0489 µM, 0.00139 µM and 1.4 µM.
As to `OCc1cc(F)cc(CNCCCCOC2CN(c3cc(-n4cnnc4)cc4[nH]ncc34)C2)c1` [Example 125, (3-(((4-((1-(6-(4H-1,2,4-triazol-4-yl)-1H-indazol-4-yl)azetidin-3-yl)oxy)butyl)amino)methyl)-5-fluorophenyl)methanol], the IC50 was determined as 0.152 µM on CLK2, 0.162 µM on CK2α and 49.2 µM at intracellular CK2α.
On to `C[C@@H](CCCOCCNc1cc(-c2cnnc(O)c2)cc2[nH]ncc12)NCc1cc(CO)cc(OC(F)(F)F)c1` [Example 193, (S)-5-(4-((2-((4-((3-(hydroxymethyl)-5-(trifluoromethoxy)benzyl)amino)pentyl)oxy)ethyl)amino)-1H-indazol-6-yl)pyridazin-3-ol], for which the IC50 came to 0.355 µM at CLK2, 0.00121 µM on CK2α and 0.0871 µM on intracellular CK2α.
Take `O=C(Cc1cnc(CCNCc2ccc(OC(F)(F)F)c(Cl)c2)o1)Nc1cc(-n2cnnc2)cc2[nH]ncc12` [Example 15, N-(6-(4H-1,2,4-triazol-4-yl)-1H-indazol-4-yl)-2-(2-(2-((3-chloro-4-(trifluoromethoxy)benzyl)amino)ethyl)oxazol-5-yl)acetamide]: the IC50 was 1.83 µM on CLK2, 0.0271 µM on CK2α and more than 50 µM at intracellular CK2α.
With `Cc1cc(CC#N)cc(CNCCCCOC2CN(c3cc(-c4ccnnc4)cc4[nH]ncc34)C2)c1` [Example 115, 2-(3-methyl-5-(((4-((1-(6-(pyridazin-4-yl)-1H-indazol-4-yl)azetidin-3-yl)oxy)butyl)amino)methyl)phenyl)acetonitrile], the figures for the IC50 on CLK2, on CK2α and on intracellular CK2α were 6.46 µM, 0.115 µM and 9.91 µM, respectively.
For `FC(F)(F)Oc1ccc(CNCCCCNCCNc2cc(-n3cnnc3)cc3[nH]ncc23)cc1Cl` [Example 24, N^1-(2-((6-(4H-1,2,4-triazol-4-yl)-1H-indazol-4-yl)amino)ethyl)-N^4-(3-chloro-4-(trifluoromethoxy)benzyl)butane-1,4-diamine], the IC50 at CLK2 came out at 0.344 µM; on CK2α, 0.00078 µM; on intracellular CK2α, 0.591 µM.
`FC(F)(F)Oc1ccc(CNCCCCOC2CN(c3cc(-c4ccnnc4)cc4[nH]ncc34)C2)cc1Cl` [Example 107, N-(3-chloro-4-(trifluoromethoxy)benzyl)-4-((1-(6-(pyridazin-4-yl)-1H-indazol-4-yl)azetidin-3-yl)oxy)butan-1-amine]: the IC50 came out at 2.64 µM at CLK2, 0.0281 µM on CK2α and 3.74 µM at intracellular CK2α.
On the same counts, the results for `FC(F)(F)Oc1ccc(CNCCCCOC2CN(c3cc(-c4cnoc4)cc4[nH]ncc34)C2)cc1Cl` [Example 137, N-(3-chloro-4-(trifluoromethoxy)benzyl)-4-((1-(6-(isoxazol-4-yl)-1H-indazol-4-yl)azetidin-3-yl)oxy)butan-1-amine] are 0.333 µM, 0.013 µM and 2.87 µM.
Consider `O=C(CCNCc1ccc(OC(F)(F)F)c(Cl)c1)NCCCNc1cc(-c2nnco2)cc2[nH]ncc12` [Example 157, N-(3-((6-(1,3,4-oxadiazol-2-yl)-1H-indazol-4-yl)amino)propyl)-3-((3-chloro-4-(trifluoromethoxy)benzyl)amino)propanamide], for which the IC50 was found to be 1.65 µM at CLK2, 0.00906 µM on CK2α and 0.828 µM at intracellular CK2α.
